For data set [1], the system named is CHL cells. The data set can be described thus: Chromosomal aberration test with a Chinese hamster lung cell line (CHL). It counts as cell-based. How it is done:
The chromosomal aberration test was conducted with a Chinese hamster lung cell line (CHL). 2-(2-Furyl)-3-(5-nitro-2-furyl)acrylamide was used as a positive control. Cells treated with the test compounds were cultured for 6 h at 37° C. in 5% CO2 -humidified air. Following the 6 h treatment the cells were washed. Fresh medium was added to the washed cells and they were cultured for a further 18 h. Colcemide was added to the cultures 2 h before the fixation of chromosome preparation, in order to collect metaphase cells.

Data set [2] relates to male ICR mice. The data set can be described thus: Convulsions, intraperitoneal (i.p.) administration with fenbufen. The following applies: for Convulsions i.p.: number of animals with convulsions/number of animals tested: 100 mg/kg i.p., fenbufen 100 mg/kg orally.
Experimental: Thirty minutes later, they were injected intraperitoneally with the test compounds at a dose of 100 mg/kg. Thereafter, the onset of convulsions was recorded.
For data set [3], the system named is Male Wistar rats. The data set can be described thus: Convulsions, intracerebroventricular (i.c.v.) administration with fenbufen. It counts as in vivo, rat. The following applies: 20 μg i.c.v.; for Convulsions i.c.v.: number of animals with convulsions/number of animals tested: fenbufen 50 mg/kg i.p. The method, then:
Male Wistar rats weighing 180-220 g were anesthetized with sodium pentobarbital (45 mg/kg, i.p.) and fixed in a stereotaxic apparatus. For the intracerebroventricular injection, a 0.6 mm diameter stainless steel guide cannula was implanted in each rat, being positioned 1.5 mm above the left lateral cerebroventricle (A: 6.2, R: 1.0, H: +1.0), according to the atlas of De Groot (1959). The guide cannula was fixed with dental cement on the skull and it was closed with a 0.3 mm diameter stainless steel stylet. To prevent infection, 10,000 units of potassium penicillin G were injected intramuscularly. The rats were allowed a few days to recover from the surgery.
For the measurement of convulsions, 30 min after intraperitoneal injection of 50 mg/kg of fenbufen, 20 μg of the test compounds was given through a 0.3 mm diameter of stainless steel cannula with a polyethylene catheter, which was 1.5 mm longer than the guide cannula in order to be inserted into the […] cerebroventricle (H: +1.0). […] The position of the intracerebroventricular cannula was confirmed by the injection of 10 μl of 1% evans blue followed by sectioning of the brain of each rat which had been used in the experiment.

For data set [4], the system named is K. pneumoniae PCI-602. The data set can be described thus: Antibacterial activity, MIC by agar dilution. Particulars: Klebsiella pneumoniae, PCI602; laboratory standard strain, gram -. It counts as cell-based. The source says: (§1) The strains employed were as follows:
(§2) Klebsiella pneumoniae (K. pneumoniae)
For orientation: In agar dilution, organisms are placed on agar that contains the substance at set levels.

In data set [5] the test system is K. pneumoniae HNR869. In words: Antibacterial activity, MIC by agar dilution. It counts as cell-based. Particulars: Klebsiella pneumoniae, clinically isolated strain, gram -.
From the text: as §1, §2

In data set [6] the test system is K. pneumoniae HNR828. The data set can be described thus: Antibacterial activity, MIC by agar dilution. It counts as cell-based. Particulars: Klebsiella pneumoniae, clinically isolated strain, gram -.
From the text: as §1, §2

Data set [7] concerns K. pneumoniae HNR858. In words: Antibacterial activity, MIC by agar dilution. It counts as cell-based. Particulars: Klebsiella pneumoniae, clinically isolated strain, gram -.
From the text: as §1, §2

Data set [8] deals with S. aureus HPC308. In words: Antibacterial activity, MIC by agar dilution. Particulars: Staphylococcus aureus, clinically isolated strain, gram +. It counts as cell-based.
From the text: as §1
(§3) Staphylococcus aureus (S. aureus)

The subject of data set [9] is S. aureus HPC292. In words: Antibacterial activity, MIC by agar dilution. It counts as cell-based. The following applies: Staphylococcus aureus, clinically isolated strain, gram +.
From the text: as §1, §3

The subject of data set [10] is S. aureus HPC527. The data set can be described thus: Antibacterial activity, MIC by agar dilution. It counts as cell-based. Particulars: Staphylococcus aureus, clinically isolated strain, gram +.
From the text: as §1, §3

Data set [11] relates to S. aureus FDA 209P JC-1. The data set can be described thus: Antibacterial activity, MIC by agar dilution. It counts as cell-based. Particulars: Staphylococcus aureus, FDA209P; laboratory standard strain, gram +.
From the text: as §1, §3

Data set [12] deals with Male Hartley guinea pigs. It counts as in vivo. The following applies: 10 mg/kg i.v.; for Phototoxicity: number of animals with erythemas/number of animals tested: UVA 90 minutes, 24 h after irradiation. How it is done: Male Hartley guinea pigs were intravenously administered test compounds at a dose of 10 mg/kg, and immediately exposed to UVA on their backs for 90 minutes.

In data set [13] the test system is S. marcescens IAM 1184. In words: Antibacterial activity, MIC by agar dilution. It counts as cell-based. The following applies: Serratia marcescens, IAM1184; laboratory standard strain, gram -.
From the text: as §1
(§4) Serratia marcescens (S. marcescens)

The test system of data set [14] is S. marcescens HNR1767. The data set can be described thus: Antibacterial activity, MIC by agar dilution. It counts as cell-based. Particulars: Serratia marcescens, clinically isolated strain, gram -.
From the text: as §1, §4

Data set [15] has as its system S. marcescens HNR1792. The data set can be described thus: Antibacterial activity, MIC by agar dilution. It counts as cell-based. The following applies: Serratia marcescens, clinically isolated strain, gram -.
From the text: as §1, §4

Data set [16] relates to S. marcescens HNR1544. In words: Antibacterial activity, MIC by agar dilution. It counts as cell-based. The following applies: Serratia marcescens, clinically isolated strain, gram -.
From the text: as §1, §4

Data set [17] deals with E. coli NIHJ JC-2. The data set can be described thus: Antibacterial activity, MIC by agar dilution. It counts as cell-based. Particulars: Escherichia coli, NIHJJC2; laboratory standard strain, gram -.
From the text: as §1
Escherichia coli (E. coli)

Data set [18] concerns E. faecalis HPC975. The data set can be described thus: Antibacterial activity, MIC by agar dilution. It counts as cell-based. Particulars: Enterococcus faecalis, clinically isolated strain, gram +.
From the text: as §1
(§5) Enterococcus faecalis (E. faecalis)

Data set [19] deals with E. faecalis HPC984. The data set can be described thus: Antibacterial activity, MIC by agar dilution. It counts as cell-based. Particulars: Enterococcus faecalis, clinically isolated strain, gram +.
From the text: as §1, §5

Data set [20] relates to E. faecalis HPC948. The data set can be described thus: Antibacterial activity, MIC by agar dilution. Particulars: Enterococcus faecalis, clinically isolated strain, gram +. It counts as cell-based.
From the text: as §1, §5

Data set [21] concerns clinically isolated strains (HPC527, HPC308 and HPC292) of S aureus. The data set can be described thus: Comparison with analogous compounds: antibacterial activity (MIC) against clinically isolated strains of S. aureus. It counts as cell-based, Staphylococcus aureus. Particulars: comparison to Tables 7 and 8; hydrochloride. How it is done:
Minimum inhibitory concentrations (MICs) of test compounds were determined by agar dilution procedure as described in the standard method of the Japan Society of Chemotherapy (Chemotherapy (Tokyo), 29,1, 76 (1981)). The strains employed were as follows:
All the data of the antibacterial activity, chromosomal aberration activity, phototoxicity and inducement of convulsions were obtained from the same tests methods as those described above. Among this, the data of the antibacterial activity shown in Tables 7 and 8 are MICs (minimum inhibitory concentrations) value against clinically isolated strains (HPC527, HPC308 and HPC292) of S aureus which is a representative gram-positive bacteria.

The test system of data set [22] is E. cloacae 963. In words: Antibacterial activity, MIC by agar dilution. It counts as cell-based. The following applies: Enterobacter cloacae, laboratory standard strain, gram -.
From the text: as §1
(§6) Enterobacter cloacae (E. cloacae)

Data set [23] deals with E. cloacae HNR1941. In words: Antibacterial activity, MIC by agar dilution. It counts as cell-based. The following applies: Enterobacter cloacae, clinically isolated strain, gram -.
From the text: as §1, §6

Data set [24] has as its system E. cloacae HNR1939. In words: Antibacterial activity, MIC by agar dilution. Particulars: Enterobacter cloacae, clinically isolated strain, gram -. It counts as cell-based.
From the text: as §1, §6

In data set [25] the test system is E. cloacae HNR1946. The data set can be described thus: Antibacterial activity, MIC by agar dilution. It counts as cell-based. Particulars: Enterobacter cloacae, clinically isolated strain, gram -.
From the text: as §1, §6

The test system of data set [26] is A. calcoaceticus HNR916. The data set can be described thus: Antibacterial activity, MIC by agar dilution. It counts as cell-based. The following applies: Acinetobacter calcoaceticus, clinically isolated strain, gram -.
From the text: as §1
(§7) Acinetobacter calcoaceticus (A. calcoaceticus)

Data set [27] deals with A. calcoaceticus HNR939. In words: Antibacterial activity, MIC by agar dilution. It counts as cell-based. The following applies: Acinetobacter calcoaceticus, clinically isolated strain, gram -.
From the text: as §1, §7

Data set [28] concerns A. calcoaceticus HNR904. The data set can be described thus: Antibacterial activity, MIC by agar dilution. It counts as cell-based. Particulars: Acinetobacter calcoaceticus, clinically isolated strain, gram -.
From the text: as §1, §7

For data set [29], the system named is polychromatic erythrocytes (PCEs). In words: Micronucleus test, bone marrow of mice. It counts as in vivo, BDF 1 mice. Particulars: percent of the number of MNPCEs per 1,000 PCEs; 250 mg/kg i.p., 24 h. The method, then:
Nine-week-old male BDF 1 mice were used in this test. The test compounds were injected intraperitoneally with a dose of 250 mg/kg. After 24 h mice were sacrificed and the bone marrow of the femur was collected. Bone marrow smears were fixed on the slides with methanol and stained with Giemsa according to the usual method. For each animal, the number of micronucleated polychromatic erythrocytes (MNPCEs) per 1,000 polychromatic erythrocytes (PCEs) was counted under the microscope. Cyclophosphamide was used as a positive control.

Entries after “also recorded” stand apart in the source; their conditions may differ. Counter-ions that a name gives are not always drawn.

Regarding `O=C(O)c1cn(C2CC2)c2cc(N3CCNCC3)c(F)cc2c1=O` [Ciprofloxacin, ciprofloxacin], in [1] (Table 5-A, CHL cells, 100 μg/ml), the “Frequency of chromosomal aberration” value is recorded as “- (<10%)”. The “Convulsions i.p.: number of animals with convulsions/number of animals tested” value in [2] was 3/6. Moreover, the “Convulsions i.c.v.: number of animals with convulsions/number of animals tested” value in data set [3] was 3/3.

Take `Cc1c(N2CC[C@H](N)C2)c(F)c(N)c2c(=O)c(C(=O)O)cn(C3CC3)c12.Cl` [Example 12, 5-Amino-7-((S)-3-amino-1-pyrrolidinyl)-1-cyclopropyl-6-fluoro-1,4-dihydro-8-methyl-4-oxoquinoline-3-carboxylic acid hydrochloride]: the MIC (usually the lowest concentration that inhibits growth of the organism) in data set [4] was 0.006 µg/mL; in [5] it was 1.56 µg/mL; in [6] it was 3.13 µg/mL; in data set [7] it was 0.2 µg/mL; in data set [8], 0.78 µg/mL; in [9], 1.56 µg/mL. The MIC in [10] stood at 0.025 µg/mL; in data set [11] it was 0.025 µg/mL; in data set [13] it was 0.1 µg/mL; in [14], 12.5 µg/mL; in [15], 1.56 µg/mL; in [16], 0.05 µg/mL. The minimal inhibitory concentration (MIC) in data set [17] came to 0.025 µg/mL; in data set [18], 1.56 µg/mL; in data set [19], 0.1 µg/mL; in data set [20], 0.39 µg/mL; in [22], 0.025 µg/mL; in [23], 6.25 µg/mL. Besides, the MIC in data set [24] was 0.2 µg/mL; in data set [25], 0.2 µg/mL; in data set [26], 0.05 µg/mL; in [27], 0.78 µg/mL; in data set [28] it was 12.5 µg/mL. Moreover, in [1], the “toxicity (chromosomal aberration), in words” value is on record as “did not show”. The “phototoxicity, in words” value in data set [12] (UVA) is recorded as “did not show”. In addition, in data set [12], the “Phototoxicity: number of animals with erythemas/number of animals tested” value was 0/5. In addition, the “antibacterial activity compared with reference compound, in words” value in data set [21] was “much higher antibacterial activity than the analogous reference compound E; also recorded: higher antibacterial activity than the analogous reference compound F; also recorded: much higher antibacterial activity than the analogous reference compound I”. The “Incidence of MNPCEs” value in data set [29] is 0.16%.

For `Cc1c(N2CCNCC2)c(F)c(N)c2c(=O)c(C(=O)O)cn(C3CC3)c12` [Reference Compound I, 5-amino-1-cyclopropyl-6-fluoro-1,4-dihydro-8-methyl-4-oxo-7-piperazinylquinoline-3-carboxylic acid hydrochloride], in [12], the “Phototoxicity: number of animals with erythemas/number of animals tested” value was 0/5. Further, the “Convulsions i.p.: number of animals with convulsions/number of animals tested” value in [2] is 0/6. The symptom of sedation result in [2] (i.p. convulsion test) is reported as “All of mice used for the test had a symptom of sedation”. For the same compound, in [3] (fenbufen), the “convulsions i.c.v., in words” value is recorded as “observed”. Besides, the “Convulsions i.c.v.: number of animals with convulsions/number of animals tested” value in data set [3] is given as 3/3.

The values above are taken from patent publication US5547962A, “5-amino-8-methyl-7-pyrrolidinylquinoline-3-carboxylic acid derivative” (priority 1993, dated 1996).
